Results taken from patent US9925206B2, “Compositions and methods for treating bacterial infection” (priority 2015, dated 2018).
Where two headings read alike, the source gives them in different places.

Legend:
[1] = system: P. aeruginosa; assay: Checkerboard assay of EDTA and antibiotics with and without acidified nitrite background; type: cell-based, Pseudomonas aeruginosa
Method: The antibiotic agents used in these studies included Tobramycin, Azithromycin, Colistin, Ticarcillin, Ciprofloxacin, Sulfametoxazole, Sulfamethazine, Tetracycline, Vancomycin, Imipenem, and Cefepime. […] Aerobic samples are incubated for 24 or 48 hours, and anaerobic samples are incubated for 48 hours.

[2] = system: PA; conditions: EDTA alone; cited from earlier work
[3] = system: P. aeruginosa biofilm; conditions: acidified nitrite 15, 25, 35 mM and EDTA 1, 5, 10 mM alone, aerobic and anaerobic, 24 hours treatment
Method: In order to determine the efficacy of the combination treatment for biofilm elimination, we employed a Crystal Violet assay. This allows us to determine the total biomass of the biofilm.
Crystal Violet stains biofilm mass which is a quantitative measure of biofilm density/thickness, but not necessarily viability (live/dead) of the biomass.
Cultures are grown for 24 hours aerobically or anaerobically, and then treated for 24 hours before assay.
P. aeruginosa was allowed to adhere to 96 well polystyrene 96 well microplates at incubate at 37° C. under aerobic vs. anaerobic conditions. The biofilms were washed with PBS and stained with 1% crystal violet (CV) for 15 minutes at room temperature. The CV was removed and the stained bacteria washed an additional 3 times prior to solubilization of the CV with 95% ethanol. The absorbance at 590 nm was monitored using a microplate reader.

[4] = system: PA strain PAO1; assay: Optical density growth/viability of PAO1 with A-NO2-, EDTA and/or tobramycin; type: cell-based, Pseudomonas aeruginosa; conditions: for growth of PAO1: 15 mM A-NO2- or 1 mM EDTA and 2 μg/ml TOBI
Method: FIG. 2 represent optical density measurements with control (untreated) bacteria arbitrarily set to 1.0 after 24 and 48 hr of growth at 37° C. in a standard rich medium known Luria broth (LB). Another experiment included the powerful aminoglycoside antibiotic, tobramycin (TOBI), that is commonly used for the treatment of PA CF/COPD lung infections (Moreau-Marquis S, et al. 2009. Am J Respir Cell Mol Biol 41:305-313; Dal Negro R, et al. 2008. Adv Ther 25:1019-1030). Nitrite was used at 25 mM (aerobic) or 15 mM (anaerobic); EDTA, 1.0 mM; TOBI, 2 μg/ml. Anaerobic LB was supplemented with 0.1 M potassium phosphate, pH 6.5 and 100 mM KNO3 as a terminal electron acceptor for anaerobic growth.

[5] = system: P. aeruginosa (PAO1); conditions: 10 mM EDTA; 30 mM NaNO2; 10 mM EDTA-10 mM NaNO2
Method: BALB/c mice (8 per group) were infected with 1.7×10^6 P. aeruginosa (PAO1) in 1 mg/ml alginate.
The infected mice (n=8) were treated with either (i) 10 mM PBS, pH 6.5, (ii) 10 mM EDTA in PBS, pH 6.5, (iii) 30 mM NaNO2 in PBS, pH 6.5, or (iv) 10 mM EDTA-10 mM NaNO2 in PBS, pH 6.5. Agents were administered as inhaled therapies beginning at 12 hours post-inoculation and continued once daily.

[6] = cited from earlier work
[7] = system: anaerobic FRD1 biofilms; conditions: 15 mM NO2-, cited from earlier work
[8] = system: FRD1/pmucA; conditions: mucA complemented strain, pH values between 6.0 and 7.5; cited from earlier work
[9] = system: FRD1; conditions: mucA mutant FRD1; cited from earlier work
[10] = system: mucoid FRD1; conditions: cited from earlier work
[11] = system: mucoid PA CF strain FRD1; conditions: 15 mM A-NO2-, pH 6.5, anaerobic; cited from earlier work
[12] = system: non-mucoid strains, PAO1 and FRD1/pmucA; conditions: 15 mM A-NO2-, pH 6.5, anaerobic, 4 day incubation; cited from earlier work
[13] = system: non-mucoid FRD1/pmucA; conditions: cited from earlier work
[14] = system: mucoid FRD1 and non-mucoid FRD1/pmucA; conditions: anaerobic 15 mM NO2-, pH 6.5, after 5 days, cited from earlier work

CC[C@H]1OC(=O)[C@H](C)[C@@H](O[C@H]2C[C@@](C)(OC)[C@@H](O)[C@H](C)O2)[C@H](C)[C@@H](O[C@@H]2O[C@H](C)C[C@H](N(C)C)[C@H]2O)[C@](C)(O)C[C@@H](C)CN(C)[C@H](C)[C@@H](O)[C@]1(C)O [Azithromycin]
bactericidal activity of the antibiotic when combined with NaNO2 and EDTA [1]: synergistically increases the bactericidal activity | result in combination with EDTA/NO2- ([1]; compared with the other antibiotic agents): best results so far in combination

O=C(O)CN(CCN(CC(=O)O)CC(=O)O)CC(=O)O [EDTA, ethylene diamine tetraacetic acid, reference compound]
MICs of EDTA upon addition of acidified nitrite ([1]; nitrite background 7.5 mM): decreased | clinical course or airway microbial flora [2]: not modify the clinical course or the airway microbial flora | biomass density/thickness of biofilm [3]: reduction of biomass density/thickness | growth of PAO1 [4]: initially impaired | average CFU/lung relative to control (PBS) [5]: reduced | toxicity in humans ([6]; in vivo): minimal toxicity

NC[C@H]1O[C@H](O[C@H]2[C@H](O)[C@@H](O[C@H]3O[C@H](CO)[C@@H](O)[C@H](N)[C@H]3O)[C@H](N)C[C@@H]2N)[C@H](N)C[C@@H]1O [TOBI, tobramycin]
bactericidal activity of the antibiotic when combined with NaNO2 and EDTA [1]: synergistically increases the bactericidal activity | growth of PAO1 [4]: initially impaired | killing PA ([4]; anaerobic conditions, TOBI 2 μg/ml): not effective

acidified nitrite [A-NO2^−]
death of biofilm bacteria ([7]; pH 6.5, 2 days): nearly complete death of biofilm bacteria | biofilm structure and cell viability relative to control biofilms ([7]; pH 7.5, 2 days): no difference in biofilm structure and cell viability | killing as a function of pH [8]: little or no killing | killing as a function of pH [9]: more effectively at lower pH | bacteria in mouse lungs after long-term treatment ([10]; 15 mM NO2- daily for 16 days): no bacteria detected | competitive index ([10]; FRD1, 10^6 intratracheally instilled into CD1 mouse airways, 6 days): ~0.2 | decrease of bacteria in mouse lungs ([10]; pH 5.5, daily treatment): > 3 logs | decrease of bacteria in mouse lungs ([10]; pH 6.5, daily treatment): > 2 logs | biomass density/thickness of biofilm [3]: reduction of biomass density/thickness | rate of killing of mucoid FRD1 [11]: ~90 % per day | viability of non-mucoid strains [12]: remained viable | competitive index ([13]; complemented strain FRD1/pmucA, CD1 mouse airways, 6 days): ~1.0 | decrease of bacteria in mouse lungs ([13]; pH 6.5 and pH 5.5): not | growth of PAO1 [4]: initially impaired | average CFU/lung relative to control (PBS) [5]: reduced | CFU of mucoid FRD1 in mixed culture ([14]; three bacterial ratios): < 10^3 CFU/ml | viability of mucoid FRD1 in mixed culture [14]: lost viability | viability of non-mucoid FRD1/pmucA in mixed culture [14]: maintained viability | toxicity in humans ([6]; each agent separately): minimal toxicity
